Measurements published in the NIST ThermoML archive (doi:10.1021/acs.jced.9b00064).
± gives the expanded uncertainty stated by the source.

Tests used:
[1] = Crystal; DSC
[2] = Molar enthalpy of transition or fusion; conditions: Crystal; DSC

- Triple point temperature [1]: 355.04 ± 2.1 K
- Molar enthalpy of transition or fusion [2]: 4.99 ± 0.478 kcal/mol
Structure (SMILES): c1ccc2ccccc2c1 [naphthalene]
